Laboratory results published in patent publication US20070248997A1, “METHOD OF USING ONE-D[…] MULTI-D[…] MAGNETIC RESONANCE TO IDENTIFY COMPOUNDS THAT INTERACT WITH TARGET BIOMOLECULES” (Smithkline Beecham Corporation, priority 1999, published 2007).
pKi: −log10 of the molar value.

Target: Ni^2+ form of Peptide Deformylase (S. Aureus) (Staphylococcus aureus, UniProt P68826)
Test: Deformylation of For-Met-Ala-Ser-OH by Ni-PDF monitored by 1H NMR over incubation times
Type: biochemical
Details: for interaction constant α between I1 and I2: 0.4 mM 8-hydroxyquinoline (I1) + 0.15 mM N-Nitro-N′-(N-phenylamino)guanidine (I2); for interaction constant α between I1 and I2 / pKi: 2.5 mM substrate, 1 uM enzyme, assuming a KM of 2.5 mM, FIG. 4; for pKi: from slopes of formate buildup, read-out: KEI (constant of inhibition)
Protocol: FIG. 1 depicts the deformylation of For-Met-Ala-Ser-OH catalyzed by the Ni^2+ form of Peptide Deformylase (S. Aureus) (herein also referred to as “PDF”) over a range of incubation times, as monitored by 1H nuclear magnetic resonance spectroscopy.
FIG. 4 depicts the deformylation of For-Met-Ala-Ser-OH catalyzed by the Ni^2+ form of Peptide Deformylase (S.Aureus) over a range of incubation times, as monitored by 1H nuclear magnetic resonance spectroscopy of the buildup of the formate (For) moiety. Four slopes are illustrated in this figure, the first one (∘) is a “control” experiment using 2.5 mM of substrate (For-Met-Ala-Ser-OH) and 1 uM of enzyme. […] The third slope (∇) contains 0.15 mM of N-Nitro-N′-(N-phenylamino)guanidine (I2) in the presence of 2.5 mM of substrate and 1 uM of enzyme. Finally the fourth slope (⋄) contains both I1 and I2 at 0.4 mM and 0.15 mM, respectively, in the presence of 2.5 mM of substrate and 1 uM of enzyme. Calculating the four slopes and using the steady-state rate equations for this system, it is straightforward to calculate the KEI1, KEI2, and α value.

Chain of Ni^2+ form of Peptide Deformylase (S. Aureus) (P68826 whole entry): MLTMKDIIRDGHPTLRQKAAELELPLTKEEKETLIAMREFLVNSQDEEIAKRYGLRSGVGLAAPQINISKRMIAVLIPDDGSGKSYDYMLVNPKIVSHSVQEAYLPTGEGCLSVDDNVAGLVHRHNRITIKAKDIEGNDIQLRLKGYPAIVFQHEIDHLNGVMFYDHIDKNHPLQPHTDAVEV

SMILES	interaction constant α between I1 and I2	pKi	deformylation of For-Met-Ala-Ser-OH (rate at which product resonance peak increases) (8-hydroxyquinoline added to substrate + Ni-PDF mixture, FIG. 1)
N=C(NNc1ccccc1)N[N+](=O)[O-] [N-Nitro-N′-(N-phenylamino)guanidine]	0.72	3.82	
Oc1cccc2cccnc12 [8-hydroxyquinoline]	0.72	3.47	slightly inhibited
